Measured values from US5098927A, “Antiretroviral agent, method of use thereas, and method of preparation” (Fujisawa Pharmaceutical Co., Ltd., priority 1989, dated 1992).

Tests used:
[1] = test system: cytopathic effect of HIV: LAV-1-infected CEM cells / Molt4 (clone 8) cells; test: Inhibitory effect on the cytopathic effect of HIV (syncytium/giant cell formation); format: cell-based, human immunodeficiency virus (LAV-1)
Experimental: The inhibitory effect of the compound (I) on the cytopathic effect (syncytium formation) by HIV infection on T lymphocytes was evaluated in the following manner.
(1) CEM cells infected with LAV-1 were washed twice with RPMI 1640 medium and a cell suspension (1 × 10^6 cells/ml) was prepared using the same medium. The suspension was distributed in 100-μl portions into culture tubes (16 × 125 mm). Complete medium^*1 containing the compound (I) in several specified concentrations was added to the culture tubes and incubation was performed in the presence of 5% carbon dioxide a 37° C. for 3 days.
The LAV-1-infected CEM cells thus cultured were washed twice with RPMI 1640 medium and then adjusted to 4 × 10^5 cells/ml with the complete medium.
[*1: RPMI 1640 medium supplemented with 20% fetal calf serum, 2.5 mM glutamine, kanamycin (100 μg/ml) and penicillin G (100 units/ml)]
(2) Molt4 (clone 8) cells were washed twice with RPMI 1640 medium and then adjusted to 2 × 10^6 cells/ml with the complete medium.
(3) The LAV-1-infected CEM cell suspension in complete medium prepared in (1) and the Molt4 (clone 8) cell suspension in complete medium prepared in (2) were respectively distributed in 50-μl portions into 96 well flat bottomed tissue culture plate, followed by further addition of 50 μl of each solution of the compound (I) in complete medium to each well, which was, in advance, prepared to give a final concentration of compound (I) of 100 μg/ml, 50 μg/ml, 20 μg/ml or 10 μg/ml (the final volume in each well being 150 μl).
(4) The above tissue culture plate was incubated at 37° C. in the presence of 5% carbon dioxide for 16 hours and then the giant cells resulting from cytopathic alteration of Molt4 (clone 8) cells were counted within the visual field of a microscope (magnification × 400).
The compound (II) was also evaluated for the same inhibitory effect (the α isomer, i.e. the compound (II'), was selected as a representative of the compound (II)).

Friend leukemia virus [2] = test: Inhibitory effect on the induction of splenomegaly by Friend leukemia virus in mice; format: in vivo, mouse (male C3H/HeN); conditions: for inhibition of splenomegaly in mice (in words): Friend leukemia virus; for Spleen weight / Inhibition: day 14; for Inhibition: percent inhibition of infection from spleen weight
Experimental: Male C3H/HeN mice (5 weeks old) were intraperitoneally inoculated with 3.1 × 10^1 MID50 /mouse of Friend leukemia virus (in 0.2 ml) and then, after this infection procedure, the active ingredient [compound (I) or compound (II)] of the present invention was administered at a specified dose in the form of a solution in sterile physiological saline by the route specified below (Experiment 1 or 2). On day 14 after infection, the mice were sacrificed by exsanguination and the spleen weight (in mg) was measured for evaluating the inhibitory effect of the compound (I) and (II) on the induction of splenomegaly. In each experiment, the control group consisted of mice given no active ingredient after infection with Friend leukemia virus. The percent inhibition of infection was calculated as follows: [formula] The compound (I) was intravenously administered 4 hours after infection (day 0) and then twice daily on days 1 to 4 and days 7 to 11 (19 times in total). The compound (II) was orally administered 1 hour after infection and then according to the same schedule as in Experiment 1. The compound (II) used was in the α form, namely the compound (II'). Friend leukemia virus used in the above test is known to be a lymphotropic retrovirous, like HIV. Since the extent of splenomegaly in mice induced by said virus is proportional to the proliferation of said virus, the inhibitory effect of an agent on the proliferation of Friend leukemia virus can be estimated by assaying its inhibitory effect on the splenomegaly in mice.

[3] = Acute toxicity testing in mice; format: in vivo, mouse (ddY, female)
Experimental: The compound (I) was administered to mice (ddY strain, female, 5 weeks old) at a dose of 1 g per kg body weight by intravenous injection.

Friend leukemia virus [4] = test: Inhibitory effect on the induction of splenomegaly by Friend leukemia virus in mice; format: in vivo, mouse (male C3H/HeN); conditions: combination with azidothymidine (AZT); no data given
α-glucosidase = conditions: stated without data; cited from earlier work
[5] = test system: immunosuppressive factors; conditions: stated without data; cited from earlier work
[6] = test system: Type II collagen-induced arthritis; test: Type II collagen-induced arthritis in rats; format: in vivo, rat (female Lewis); conditions: oral, means ± SEM
Experimental: (2R, 3S, 4R, 5R)-3,4-dihydroxy-5-hydroxymethyl-2-pyrrolidinesufonic acid (compound (II'))
Inbred 7-week-old female Lewis rats were handled under specific pathogen-free conditions and acclimated to the new environment for a week before use.
Type II bovine collagen was dissolved at 4° C. in 0.01M acetic acid at a concentration of 2 mg/ml. The solution was emulsified in an equal volume of incomplete Freund's adjuvant. Rats were anesthetized with sodium pentobarbital (30 mg/kg, i.p.) and the backs of rats were shaved. Under anesthesia, each rat was immunized with 0.8 ml of the cold emulsion by several intradermal injections on the depilated back and one or two injections into the base of the tail.
The test compound was dissolved in distilled water and administered orally at various doses in 5 ml/kg. From the day of immunization, the test compound or vehicle was administered once a day for 2 weeks.
The extent of arthritis was expressed as the increase in paw volume of each rat. The volume of both hind legs below the knee joint was measured with a plethysmometer. The rats were immunized on day 0 and the paw volume was measured on day 12 and 14. Mean increases in the paw volume of each group was calculated and the result was expressed as means ± SEM. Each group consisted of 10 rats.

[7] = Stability and hygroscopicity; format: physicochemical; conditions: compared with the pyrroline compound (I)
inflammation = test: Anti-inflammatory activity (general statement); conditions: stated in words

OC[C@H]1N=C[C@@H](O)[C@@H]1O [Compound (I), (3R, 4R, 5R)-3,4-dihydroxy-5-hydroxymethyl-1-pyrroline]
Number of giant cells ([1]; compound (I) 10 μg/ml, 16 h, control (0 μg/ml) 260.5, mean of two countings): 246.5
Number of giant cells ([1]; compound (I) 20 μg/ml, 16 h, control (0 μg/ml) 260.5, mean of two countings): 147.5
Number of giant cells ([1]; compound (I) 50 μg/ml, 16 h, control (0 μg/ml) 260.5, mean of two countings): 44.5
Number of giant cells ([1]; compound (I) 100 μg/ml, 16 h, control (0 μg/ml) 260.5, mean of two countings): 9.5
inhibition of splenomegaly in mice (in words) (Friend leukemia virus [2]): can inhibit such splenomegally in mice
Spleen weight (Friend leukemia virus [2]; intravenous, 20 mg/kg/administration, 19 times, control 1149 ± 220, normal 92 ± 3 mg, mean of 10 mice): 840 ± 421 mg
Inhibition (Friend leukemia virus [2]; intravenous, 20 mg/kg/administration, 19 times): 29%
Spleen weight (Friend leukemia virus [2]; intravenous, 80 mg/kg/administration, 19 times, control 1149 ± 220, normal 92 ± 3 mg, mean of 10 mice): 667 ± 241 mg
Inhibition (Friend leukemia virus [2]; intravenous, 80 mg/kg/administration, 19 times): 46%
body weight ([3]; 1 g per kg body weight, intravenous injection): body weight gains
survival ([3]; mouse, in vivo, iv): The mice survived
potentiation of azidothymidine (AZT) in inhibiting splenomegaly in mice (Friend leukemia virus [4]): can potentiate azidothymidine (AZT) in inhibiting such splenomegaly in mice
α-glucosidase inhibiting activity (α-glucosidase): α-glucosidase inhibiting activity
activity against immunosuppressive factors [5]: activity against immunosuppressive factors

O=S(=O)(O)[C@H]1N[C@H](CO)[C@@H](O)[C@@H]1O [Compound (II'), (2R, 3S, 4R, 5R)-3,4-dihydroxy-5-hydroxymethyl-2-pyrrolidinesulfonic acid]
Number of giant cells ([1]; compound (II') 1 μg/ml, control (0 μg/ml) 173.0 ± 2.0, mean ± SD): 119.5 ± 16.5
Number of giant cells ([1]; compound (II') 3 μg/ml, control (0 μg/ml) 173.0 ± 2.0, mean ± SD): 106.0 ± 19
Number of giant cells ([1]; compound (II') 10 μg/ml, control (0 μg/ml) 173.0 ± 2.0, mean ± SD): 89.0 ± 10
Number of giant cells ([1]; compound (II') 30 μg/ml, control (0 μg/ml) 173.0 ± 2.0, mean ± SD): 53.5 ± 8.5
Number of giant cells ([1]; compound (II') 100 μg/ml, control (0 μg/ml) 173.0 ± 2.0, mean ± SD): 26.5 ± 3.5
Spleen weight (Friend leukemia virus [2]; oral, 10 mg/kg/administration, first 1 hour after infection, control 1073 ± 26, normal 79 ± 2 mg, mean of 8 mice): 875 ± 71 mg
Inhibition (Friend leukemia virus [2]; oral, 10 mg/kg/administration, first 1 hour after infection): 20%
Paw volume change ([6]; 10 mg/kg once a day, 12 day, control 0.29 ± 0.13, normal 0.03 ± 0.07): 0.16 ± 0.15 mL
Paw volume change ([6]; 10 mg/kg once a day, 14 day, control 0.41 ± 0.24, normal 0.05 ± 0.03): 0.27 ± 0.21 mL
Paw volume change ([6]; 32 mg/kg once a day, 12 day, control 0.29 ± 0.13, normal 0.03 ± 0.07): 0.13 ± 0.10 mL
Paw volume change ([6]; 32 mg/kg once a day, 14 day, control 0.41 ± 0.24, normal 0.05 ± 0.03): 0.19 ± 0.22 mL
Paw volume change ([6]; 100 mg/kg once a day, 12 day, control 0.29 ± 0.13, normal 0.03 ± 0.07): 0.08 ± 0.11 mL
Paw volume change ([6]; 100 mg/kg once a day, 14 day, control 0.41 ± 0.24, normal 0.05 ± 0.03): 0.06 ± 0.04 mL

O=S(=O)(O)C1N[C@H](CO)[C@@H](O)[C@@H]1O (some centres unmarked) [(II)]
inhibition of splenomegaly in mice (in words) (Friend leukemia virus [2]): can inhibit such splenomegally in mice
hygroscopicity [7]: less hygroscopic than the pyrroline compound (I)
stability [7]: very stable
anti-inflammatory activity (inflammation): has anti-inflammatory activity
potentiation of azidothymidine (AZT) in inhibiting splenomegaly in mice (Friend leukemia virus [4]): can potentiate azidothymidine (AZT) in inhibiting such splenomegaly in mice
